Among the test systems are Lelliottia amnigena; Escherichia coli; Bacillus megaterium; Microbacterium oxydans; Staphylococcus aureus; Aeromonas hydrophila; Pseudomonas fluorescens; Burkholderia stabilis; Shigella sp.; Kluyvera cryocrescens; Micrococcus luteus; Sporosarcina ureae; Bacillus cereus; Proteus sp.; Escherichia coli SBS 363; Klebsiella pneumoniae; Escherichia coli HB101.
What all share (test): ≥ marks a high value that may be exact or a test limit, other limits are often not marked, values filed in µg/mL are converted to µM
Assay [1] concerns Salmonella enterica subsp. enterica serovar Gallinarum.
For assay [2], the system named is Salmonella enterica subsp. enterica serovar Typhi.
Assay [3] concerns Latilactobacillus sakei NCDO 2714.
Assay [4] has as its system Lactiplantibacillus plantarum 965.
Assay [5] concerns Microbacterium maritypicum CIP 105733T.
Assay [6] relates to Corynebacterium stationis CIP 101282.
Assay [7] deals with Staphylococcus aureus CIP 103428.
The subject of assay [8] is Vibrio nigripulchritudo CIP 103195.
The test system of assay [9] is Vibrio splendidus CIP 107715.
Assay [10] concerns Bacillus megaterium CIP 6620.
The test system of assay [11] is Staphylococcus haemolyticus.
In assay [12] the test system is Staphylococcus aureus SG511.
In assay [13] the test system is Micrococcus luteus CIP 5345.
Assay [14] has as its system Micrococcus luteus ATCC 49732.
Assay [15] concerns Klebsiella pneumoniae KCTC 2208.
For assay [16], the system named is Pseudomonas aeruginosa ATCC 27853.
Assay [17] deals with Acinetobacter baumannii KCTC 2508.
The subject of assay [18] is Staphylococcus aureus ATCC 25923.
For assay [19], the system named is Vibrio anguillarum ATCC 43308.
In assay [20] the test system is Escherichia coli ATCC 25922.

≈ marks a conversion by molar mass, not a printed value. Where “and” joins values, the source holds several entries; their conditions need not be identical. Equal values may be shown once. A value given as a limit tells only on which side of the number the result lay.

On to `CC[C@H](C)[C@H](NC(=O)[C@H](Cc1cnc[nH]1)NC(=O)[C@H](CC(N)=O)NC(=O)[C@@H](NC(=O)[C@@H](NC(=O)[C@H](CC(C)C)NC(=O)[C@H](CC(=O)O)NC(=O)[C@@H]1CCCN1C(=O)[C@H](CC(C)C)NC(=O)[C@H](CCCCN)NC(=O)[C@H](Cc1c[nH]c2ccccc12)NC(=O)[C@@H](N)CCC(=O)O)[C@@H](C)CC)[C@@H](C)CC)C(=O)N[C@H](C(=O)N[C@@H](CC(C)C)C(=O)N[C@H](C(=O)N[C@@H](CCCN=C(N)N)C(=O)N[C@@H](CCCN=C(N)N)C(=O)N[C@@H](CC(N)=O)C(=O)N[C@H]1CSSC[C@@H](C(=O)NCC(=O)O)NC(=O)[C@H](CCCN=C(N)N)NC(=O)[C@H](Cc2ccc(O)cc2)NC(=O)[C@H](CCCCN)NC(=O)[C@H](Cc2ccccc2)NC1=O)[C@@H](C)O)[C@@H](C)O` [EWKLPDLIINHITLTRRNCFKYRCG], for which the MIC – broadly, the lowest concentration found to suppress growth – came to 1.64 µM (≈ 5.07 µg/mL) in [1]; 16.4 µM (≈ 50.7 µg/mL) in the assay on Lelliottia amnigena; 16.4 µM (≈ 50.7 µg/mL) against Escherichia coli; 3.27 µM (≈ 10.1 µg/mL) against Bacillus megaterium; 0.164 µM (≈ 0.507 µg/mL) against Microbacterium oxydans; 164 µM (≈ 507 µg/mL) against Staphylococcus aureus. The MIC in the assay on Aeromonas hydrophila was 1.64 µM (≈ 5.07 µg/mL); against Pseudomonas fluorescens it was not below 32.7 µM; against Burkholderia stabilis, not below 164 µM; against Shigella sp., 16.4 µM (≈ 50.7 µg/mL); against Kluyvera cryocrescens it was not below 164 µM; in the assay with Micrococcus luteus, 16.4 µM (≈ 50.7 µg/mL). Further, the MIC against Sporosarcina ureae was not below 164 µM; in the assay with Bacillus cereus, 0.327 µM (≈ 1.01 µg/mL); with Proteus sp., not below 164 µM; in assay [2], 16.4 µM (≈ 50.7 µg/mL).
Take `CC[C@H](C)[C@H](NC(=O)[C@H](C)NC(=O)[C@@H](NC(=O)[C@H](C)NC(=O)CN)[C@@H](C)O)C(=O)N[C@@H](CCCCN)C(=O)N[C@@H](CCC(N)=O)C(=O)N[C@H](C(=O)N[C@@H](CCCCN)C(=O)N[C@@H](CCCCN)C(=O)N[C@@H](CC(C)C)C(=O)N[C@@H](Cc1ccccc1)C(=O)N[C@@H](CCCCN)C(=O)N[C@@H](CCCCN)C(=O)N[C@@H](Cc1c[nH]c2ccccc12)C(=O)NCC(=O)N[C@@H](Cc1c[nH]c2ccccc12)C(=O)O)C(C)C` [GATAIKQVKKLFKKWGW]: the MIC in assay [3] came to 0.015 µM (≈ 0.0298 µg/mL); in assay [4], 0.4 µM (≈ 0.796 µg/mL).
In the case of `CC[C@H](C)[C@H](NC(=O)[C@@H]1CCCN1C(=O)CN)C(=O)N[C@@H](CCCN=C(N)N)C(=O)N[C@@H](CCCN=C(N)N)C(=O)N1CCC[C@H]1C(=O)N[C@@H](CCCCN)C(=O)N1CCC[C@H]1C(=O)N[C@@H](CCCN=C(N)N)C(=O)N1CCC[C@H]1C(=O)N[C@@H](CCCN=C(N)N)C(=O)N[C@@H](CCC(N)=O)C(=O)N[C@@H](CCCN=C(N)N)C(=O)N1CCC[C@H]1C(=O)N[C@@H](CCC(=O)O)C(=O)O` [GPIRRPKPRPRQRPE], the MIC is 20 µM (≈ 36.8 µg/mL) in [5]; 20 µM (≈ 36.8 µg/mL) in assay [6]; 20 µM (≈ 36.8 µg/mL) in assay [7]; not below 40 µM in assay [8]; not below 40 µM in [9]; 20 µM (≈ 36.8 µg/mL) in assay [10]. The MIC in [11] was 20 µM (≈ 36.8 µg/mL); in assay [12] it was 20 µM (≈ 36.8 µg/mL); in assay [13], not below 80 µM; against Escherichia coli SBS 363, not below 80 µM.
With `CC[C@H](C)[C@H](NC(=O)[C@@H](NC(=O)[C@H](Cc1cnc[nH]1)NC(=O)[C@H](CCCN=C(N)N)NC(=O)[C@H](C)NC(=O)[C@H](CCCN=C(N)N)NC(=O)[C@H](CC(C)C)NC(=O)[C@H](CO)NC(=O)[C@H](C)NC(=O)[C@H](CS)NC(=O)[C@H](CC(C)C)NC(=O)[C@@H](N)CC(N)=O)[C@@H](C)O)C(=O)N1CCC[C@H]1C(=O)N[C@@H](CCC(N)=O)C(=O)N[C@@H](CS)C(=O)N[C@@H](CCCCN)C(=O)N[C@@H](CCCCN)C(=O)N[C@@H](Cc1ccccc1)C(=O)NCC(=O)N[C@@H](CCCN=C(N)N)C(=O)N[C@@H](CCCN=C(N)N)C(=O)O` [NLCASLRARHTIPQCKKFGRR], the MIC is 2.57 µM (≈ 6.3 µg/mL) in assay [14]; 16 µM (≈ 39.3 µg/mL) in assay [15]; 32 µM (≈ 78.6 µg/mL) in [16]; > 32 µM and 16 µM against Klebsiella pneumoniae; 16 µM (≈ 39.3 µg/mL) in assay [17]; 2.57 µM (≈ 6.3 µg/mL) in assay [18]. For the same molecule, the MIC turned out to be 5.09 µM (≈ 12.5 µg/mL) in assay [19] and 2.57 µM (≈ 6.3 µg/mL) in [20].
Consider `CC[C@H](C)[C@H](NC(=O)[C@H](CCCN=C(N)N)NC(=O)[C@@H](N)CCCN=C(N)N)C(=O)N[C@@H](CCCN=C(N)N)C(=O)N1CCC[C@H]1C(=O)N[C@@H](CCCN=C(N)N)C(=O)N1CCC[C@H]1C(=O)N[C@@H](CCCN=C(N)N)C(=O)O` [RRIRPRPR], for which the figures for the MIC (with Escherichia coli HB101; in assay [20]) were not below 128 µM and more than 128 µM, respectively.

Source of the values: DBAASP.
